Experimental findings from PubChem BioAssay AID179 (DTP/NCI, 2004) are described below.

Broadly, the EC50 is the midpoint of the concentration-response curve. As a reminder, the IC50 is the concentration that inhibits the measured activity by half.

Each structure is given as a SMILES string. Active and inactive are the calls of the source.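 How the source made its calls: active means compounds giving half or more protection of infected cells from virus-caused growth loss, again on retest; inactive means the rest.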 Where a SMILES comes first, the peptide text is derived from it. The star is where a group is joined. Myristoyl = CCCCCCCCCCCCCC(=O)*

For the experiment, the system named is CEM cells HIV-1 protection, formazan growth assay. As to the kind of experiment: NCI AIDS Antiviral Assay. The settings on record: for IC50: measured here: growth of uninfected CEM cells. In short, it runs like this: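 Human CEM cells, uninfected and HIV-1-infected, received five drug concentrations, and growth was read by soluble formazan assay. Compounds giving at least 50% protection were retested; reproducible 100% protection defined confirmed active.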

Regarding `CC1=CCS(=O)(=O)C1C(O)C1=C(C)CCCC1(C)C` (stereo not drawn), the EC50 was above 200 µM and the IC50 came out at 40.7 µM.

On to `ClCCCCOC1CCCCO1` (stereo not drawn), for which the outcome was inactive.

Turning to `ClCCCC1COc2ccccc2O1` (stereo not drawn), the EC50 is above 200 µM and the IC50 is above 200 µM.

As to `O=C(O)[C@@H]1CSC(c2ccc(Cl)cc2)N1` (stereo partly drawn), the EC50 was above 200 µM and the IC50 is above 200 µM.

For the compound `O=C(O)Cn1nnc2c(=O)[nH][nH]c(=O)c21`, the EC50 is above 200 µM and the IC50 was above 200 µM.

Consider `Cc1nc2nn[nH]n2c(=O)c1CCO`, for which the EC50 was above 200 µM and the IC50 was above 200 µM.

Regarding `COc1ccc(C(O)C(=O)c2nc3ccc([N+](=O)[O-])cc3[nH]c2=O)cc1` (stereo not drawn), the EC50 was 107 µM and the IC50 came to 129 µM.

On to `COC1=C(C)C(=O)c2nccc(C)c2C1=O`, for which the result was inactive.

On to `C=C(c1cc(Br)c(OC)c(C(=O)OC)c1)c1cc(Br)c(OC)c(C(=O)OC)c1`, for which the EC50 was above 100 µM and the IC50 was above 100 µM.

In the case of `CCOC(=O)/C=C/n1cc(C)c(=O)[nH]c1=O`, the EC50 was above 224 µM and the IC50 turned out to be 117 µM.

Take `c1ccc2c(c1)CCc1c(-c3noc4c3CCc3ccccc3-4)noc1-2`: the EC50 was above 148 µM and the IC50 is above 148 µM.

Take `Cn1cc(C(=O)c2ccccc2)cc(C(=O)c2ccccc2)c1=O`: the outcome was inactive.

With `CC(C)(C)OC(=O)N1NC(c2ccccc2)CC1c1ccccc1` (stereo not drawn), the EC50 was above 200 µM and the IC50 amounted to 28.2 µM.

For `CC(C)(C)C(=O)O/C=C\OC1CCCC1(c1ccccc1)c1ccccc1` (stereo not drawn), the EC50 was above 200 µM and the IC50 stood at 9.55 µM.

With `O=C(OCc1ccccc1)C1(N2CN(C3(C(=O)OCc4ccccc4)CCCC3)CN(C3(C(=O)OCc4ccccc4)CCCC3)C2)CCCC1`, the EC50 is above 200 µM and the IC50 is 35.5 µM.

For `COc1ccc(C(=O)C(C(=O)CCC(=O)Nc2ccc(Cl)c(Cl)c2)c2ccc(OC)cc2)cc1` (stereo not drawn), the EC50 was above 72.4 µM and the IC50 is above 72.4 µM.

Take `c1ccc(C2=Nc3nc4ccccc4n3C(c3ccccc3)C2)cc1` (stereo not drawn): the EC50 was above 151 µM and the IC50 is above 151 µM.

Regarding `O=c1c2sc3ccccc3sc=2c(=O)c2c(Cl)c(Cl)c(Cl)c(Cl)c12`, the EC50 was above 126 µM and the IC50 is 58.9 µM.

Turning to `Oc1cc(Cl)cc2cc(Br)cnc12`, the result was inactive.

Turning to `O=C(O)c1cc2cc([N+](=O)[O-])ccc2oc1=O`, the EC50 was above 447 µM and the IC50 is above 447 µM.

Turning to `O=[N+]([O-])c1ccc(CSc2nn(Cc3ccc([N+](=O)[O-])cc3)cc3ncnc2-3)cc1`, the EC50 is above 200 µM and the IC50 was 19.5 µM.

For `CCCc1c(C(=O)OCC)[nH]c(C(=O)CCC(=O)c2[nH]c(C(=O)OCC)c(CCC)c2C(=O)OCC)c1C(=O)OCC`, the EC50 was above 17 µM and the IC50 was above 17 µM.

On to `C(=C1\CCC/C(=C/c2ccccc2)C1=NNc1ccccc1)/c1ccccc1`, for which the EC50 is above 14.5 µM and the IC50 was above 14.5 µM.

Regarding `O=C/C1=C/C2=Cc3ccccc3C=C(/C=C(/C=O)C1)C2`, the EC50 was above 100 µM and the IC50 was found to be 43.7 µM.

Consider `CCCCCCC(O)CCCC(O)C1CCC(C2CCC(C(O)CCCCCCCCCCCCC3=CC(C)OC3=O)O2)O1` (stereo not drawn), for which the result was inactive.

On to `CC1OC(OC2C(O[C@H]3CC[C@@]4(C)C(=CC[C@H]5[C@@H]6C[C@@H]7O[C@]8(CC[C@@H](C)CO8)[C@@H](C)[C@@H]7[C@@]6(C)CC[C@@H]54)C3)OC(CO)C(O)C2OC2OC(CO)C(O)C(O)C2O)C(O)C(O)C1O` (stereo partly drawn), for which the EC50 was above 200 µM and the IC50 stood at 1.17 µM.

As to `CCOP(=O)(OCC)/C(=C\n1ccc(=O)[nH]c1=S)C(=O)OC`, the EC50 is above 200 µM and the IC50 was above 200 µM.

As for `ClC1=C(Cl)C(Cl)(Cl)SS1`, the EC50 is above 200 µM and the IC50 amounted to 33.1 µM.

With `O=C1c2cn[nH]c2N=C(Nc2ccccc2)C1N=Cc1ccc([N+](=O)[O-])cc1` (stereo not drawn), the EC50 is above 200 µM and the IC50 was 102 µM.

Take `S=P(Oc1cc(Cl)c(Cl)cc1Cl)(N1CCN(c2cccc(Cl)c2)CC1)N1CCN(c2cccc(Cl)c2)CC1`: the EC50 is above 11.2 µM and the IC50 was above 11.2 µM.

`O=C1c2ccccc2C(=O)C1(Br)C(Br)c1ccccc1` (stereo not drawn): the EC50 is above 200 µM and the IC50 amounted to 2.57 µM.

In the case of `N#Cc1c(N)sc(N)c1C#N`, the EC50 was above 200 µM and the IC50 turned out to be 97.7 µM.

Take `NS(=O)(=O)c1ccc(Nc2c3ccccc3nc3c(C(=O)NCCCN(CCO)CCO)cccc23)cc1`: the EC50 was above 200 µM and the IC50 was found to be 9.33 µM.

Turning to `C#CCNC(=O)N(CC#C)N=O`, the EC50 was above 1100 µM and the IC50 amounted to 166 µM.

On to `CC(=O)NN(c1ccccc1)C1CCN(c2ccccc2)N1C(C)=O` (stereo not drawn), for which the EC50 was above 200 µM and the IC50 is 10.7 µM.

Consider `Cc1ccc2cc(N)c3ccc(C)nc3c2n1.Cc1ccc2cc(N)c3ccc(C)nc3c2n1.O=C1OC(C(O)C[O-])C(O)=C1O.[Cu+]`, for which the EC50 was above 12.6 µM and the IC50 was 0.55 µM.

Consider `COc1ccc(-c2cc(C(=O)O)c3cc4ccccc4cc3n2)cc1Br`, for which the outcome was inactive.

Take `N#Cc1nc(Nc2cccc3ccccc23)sc1N`: the EC50 was above 135 µM and the IC50 amounted to 60.3 µM.

As to `O=C(O)CN(CC(=O)O)C1CCCCC1N1CC(=O)OC(=O)C1` (stereo not drawn), the EC50 was above 200 µM and the IC50 was 18.2 µM.

On to `O=C(O)c1nc2ccc(Cl)cc2[nH]c1=O`, for which the result was inactive.

Consider `CSc1n[nH]c(N)c1C(=O)Nc1ccc(Cl)cc1`, for which the EC50 is 0.457 µM and the IC50 was determined as 1.86 µM.

With `C[CH2][Sn]([CH2]C)([O]C(=O)c1ccc(F)cc1)[O][Sn]([CH2]C)([CH2]C)[O]C(=O)c1ccc(F)cc1`, the EC50 is above 8.13 µM and the IC50 came to 6.61 µM.

For `C=CCNc1nc2c(s1)C(=O)c1ccccc1C2=O`, the EC50 was above 13.8 µM and the IC50 was determined as 8.32 µM.

As to `CCN1C[C@]2(COC)[C@H](O)C[C@H](OC)[C@]34C1[C@H]([C@H](OC)[C@H]23)[C@]1(OC(C)=O)[C@H]2[C@@H](OC(=O)c3ccccc3)[C@](O)(C[C@H]24)[C@@H](OC)[C@@H]1O`, the result was inactive.

Turning to `Cc1occc1C(=S)Nc1ccc(Cl)c(C(=O)OC2CCCCC2)c1`, the EC50 is 0.012 µM and the IC50 came out at 7.24 µM.

Turning to `CC(=O)Nc1n[n+]([O-])c2cc(C)ccc2[n+]1[O-]`, the EC50 was above 200 µM and the IC50 amounted to 0.955 µM.

Take `O=C(/C(C=NC(=S)c1ccncc1)=C(/O)C1=CC=CCC1)c1ccccc1`: the result was inactive.

As for `Oc1cccc2ccc(SSc3ccc4cccc(O)c4n3)nc12`, the EC50 is above 200 µM and the IC50 worked out at 20.4 µM.

As to `CCc1cc2c(oc3cc(C)ccc32)c(=O)[nH]1`, the EC50 was above 100 µM and the IC50 is above 100 µM.

For the compound `Clc1ccc(-c2nc3ccc(C45CC6CC(CC(C6)C4)C5)cc3[nH]2)cc1`, the EC50 was above 100 µM and the IC50 was above 100 µM.

For the compound `CCc1c(-c2ccc(OC)cc2)oc(OC)c(C)c1=O`, the EC50 was above 200 µM and the half-inhibitory concentration (IC50) was found to be 40.7 µM.

`CC(=O)OC1CCC2(C)C(CCC3C2CCC2(C)C3CCC2C(C)(C)O)C1` (stereo not drawn): the EC50 was above 200 µM and the IC50 was determined as 174 µM.

As for `N#CC1=C(N)OC(c2ccc([N+](=O)[O-])cc2)C1(C#N)C#N` (stereo not drawn), the EC50 is above 200 µM and the IC50 amounted to 10 µM.

As for `O=S(Cc1ccccc1)/C(=C/NC(=S)N=Nc1c(O)[nH]c2ccccc12)c1ccccc1` (stereo not drawn), the EC50 was 58.9 µM and the IC50 was determined as 178 µM.

In the case of `CC1=C/N\C(C#N)=C(C#N)/N=C/C(C)=C\N\C(C#N)=C(C#N)/N=C\1`, the EC50 was above 200 µM and the IC50 is above 200 µM.

Take `CSc1cc(-c2ccccn2)nc(-c2ccccn2)c1.CSc1cc(-c2ccccn2)nc(-c2ccccn2)c1.[O-][Cl+3]([O-])([O-])[O-].[Zn+2]`: the EC50 is above 200 µM and the IC50 came to 0.0631 µM.

`CC1=CC(C)C(=O)N(C)C(C)=C1` (stereo not drawn): the EC50 was above 1510 µM and the IC50 was 457 µM.

`CCOC(=O)c1nc2cc(C(F)(F)F)ccc2nc1Oc1ccc(OC)cc1`: the EC50 was above 200 µM and the IC50 turned out to be 174 µM.

Regarding `CC(=O)Oc1c(OC(C)=O)c(C=O)c2c(OC(C)=O)c(-c3c(C)cc4c(C(C)C)c(OC(C)=O)c(OC(C)=O)c(C=O)c4c3OC(C)=O)c(C)cc2c1C(C)C`, the EC50 is above 200 µM and the IC50 came to 8.91 µM.

Take `N#Cc1c2ccc([N+](=O)[O-])cc2c(=O)n2c1[nH]c1ccc(C(F)(F)F)cc12`: the EC50 was above 200 µM and the IC50 was 1.91 µM.

Consider `O=c1[nH]nc(-c2ccc3ccccc3c2)[nH]1`, for which the EC50 is 135 µM and the IC50 is above 200 µM.

Turning to `CCCCCCCCCCCCCC(=O)NCC(=O)NC(CC(N)=O)C(=O)NC(C)C(=O)NC(C)C(=O)NC(C)C(=O)NC(C)C(=O)NC(CCCCN)C(=O)NC(CCCCN)C(=O)NCC(=O)NC(Cc1ccc(O)cc1)C(N)=O` (stereo not drawn) (Myristoyl-GNAAAAKKGY-NH2; configuration not given here), the EC50 was above 214 µM and the IC50 is above 214 µM.

As for `O=C1OCc2cc3cc4c(cc3c(-c3ccc5c(c3)OCO5)c21)OCO4` (tested in a mixture with another compound), the outcome was inactive.

`CC1(C)CC[C@H](C2=CC(=O)c3c(O)ccc(O)c3C2=O)O1`: the EC50 was above 91.2 µM and the IC50 turned out to be 0.0955 µM.

With `CCCCCCCCCCCC1=C(NCCS)C(=O)C=C(NCCS)C1=O`, the EC50 is above 1.26 µM and the IC50 is above 1.26 µM.

For `O=[N+]([O-])c1cc(F)ccc1S(=O)(=O)c1ccccc1`, the EC50 is above 200 µM and the IC50 was 35.5 µM.

On to `O=S1(=O)OCCOS(=O)(=O)C1C1c2ccccc2-c2ccccc21`, for which the EC50 is above 200 µM and the IC50 came out at 30.9 µM.

Regarding `CCc1c2c([nH]c(=S)c1C#N)CCC2`, the EC50 was 61.7 µM and the IC50 is above 200 µM.

Regarding `OC1CCSc2ccccc21` (stereo not drawn), the EC50 is above 200 µM and the IC50 is above 200 µM.
